Read-outs that look alike come from different tables or passages of the source.
Columns and labels:
[1] = target: T1, FLT3-ITD (Homo sapiens, UniProt P36888); experiment: Kinase inhibition assay with [γ-33P]ATP; assay type: biochemical
T1 sequence (P36888 1-993): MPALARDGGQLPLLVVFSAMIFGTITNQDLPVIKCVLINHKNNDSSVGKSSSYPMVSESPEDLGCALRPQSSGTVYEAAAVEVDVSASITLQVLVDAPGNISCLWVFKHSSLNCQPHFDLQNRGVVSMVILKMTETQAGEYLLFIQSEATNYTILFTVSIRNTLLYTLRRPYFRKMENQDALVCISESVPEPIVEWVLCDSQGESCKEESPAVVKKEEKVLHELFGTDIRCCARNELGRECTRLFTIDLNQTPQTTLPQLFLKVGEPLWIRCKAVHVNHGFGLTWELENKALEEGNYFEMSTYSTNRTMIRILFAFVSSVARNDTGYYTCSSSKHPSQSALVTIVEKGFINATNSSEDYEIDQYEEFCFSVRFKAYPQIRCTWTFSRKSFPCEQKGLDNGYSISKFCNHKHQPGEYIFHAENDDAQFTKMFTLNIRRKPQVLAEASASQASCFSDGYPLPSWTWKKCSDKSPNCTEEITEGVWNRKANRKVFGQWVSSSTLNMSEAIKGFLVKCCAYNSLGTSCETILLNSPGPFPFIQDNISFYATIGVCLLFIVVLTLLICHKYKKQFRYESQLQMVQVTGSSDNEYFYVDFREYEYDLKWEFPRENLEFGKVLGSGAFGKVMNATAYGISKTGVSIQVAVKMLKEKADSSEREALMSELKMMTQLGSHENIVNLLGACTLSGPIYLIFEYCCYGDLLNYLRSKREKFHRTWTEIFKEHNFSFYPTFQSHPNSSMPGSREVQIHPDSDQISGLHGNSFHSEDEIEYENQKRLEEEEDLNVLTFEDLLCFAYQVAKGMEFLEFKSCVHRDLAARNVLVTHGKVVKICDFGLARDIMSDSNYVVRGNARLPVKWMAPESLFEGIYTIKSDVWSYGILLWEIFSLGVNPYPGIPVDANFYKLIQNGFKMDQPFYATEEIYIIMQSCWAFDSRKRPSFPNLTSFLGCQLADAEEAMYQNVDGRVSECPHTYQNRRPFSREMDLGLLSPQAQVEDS
How it was run: (§1)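 Radiometric [γ-33P]ATP assay in HEPES pH 7.5 with Mg2+/Mn2+: CDK1/Cyclin B (Sf9-expressed) and purchased CDK5/p35 with 1 mg/mL histone H1 at 15 and 0.15 μM ATP respectively; FLT3 WT and FLT3-ITD with AGLT substrate at 1 μM ATP. Reactions stopped with H3PO4, spotted onto phosphocellulose and washed.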

[2] = target: T2, FLT3 WT (Homo sapiens, UniProt P36888); experiment: Kinase inhibition assay with [γ-33P]ATP; assay type: biochemical; conditions: AGLT substrate, 1 μM ATP
T2 construct: purchased ProQinase GmbH
T2 sequence (P36888 27-993): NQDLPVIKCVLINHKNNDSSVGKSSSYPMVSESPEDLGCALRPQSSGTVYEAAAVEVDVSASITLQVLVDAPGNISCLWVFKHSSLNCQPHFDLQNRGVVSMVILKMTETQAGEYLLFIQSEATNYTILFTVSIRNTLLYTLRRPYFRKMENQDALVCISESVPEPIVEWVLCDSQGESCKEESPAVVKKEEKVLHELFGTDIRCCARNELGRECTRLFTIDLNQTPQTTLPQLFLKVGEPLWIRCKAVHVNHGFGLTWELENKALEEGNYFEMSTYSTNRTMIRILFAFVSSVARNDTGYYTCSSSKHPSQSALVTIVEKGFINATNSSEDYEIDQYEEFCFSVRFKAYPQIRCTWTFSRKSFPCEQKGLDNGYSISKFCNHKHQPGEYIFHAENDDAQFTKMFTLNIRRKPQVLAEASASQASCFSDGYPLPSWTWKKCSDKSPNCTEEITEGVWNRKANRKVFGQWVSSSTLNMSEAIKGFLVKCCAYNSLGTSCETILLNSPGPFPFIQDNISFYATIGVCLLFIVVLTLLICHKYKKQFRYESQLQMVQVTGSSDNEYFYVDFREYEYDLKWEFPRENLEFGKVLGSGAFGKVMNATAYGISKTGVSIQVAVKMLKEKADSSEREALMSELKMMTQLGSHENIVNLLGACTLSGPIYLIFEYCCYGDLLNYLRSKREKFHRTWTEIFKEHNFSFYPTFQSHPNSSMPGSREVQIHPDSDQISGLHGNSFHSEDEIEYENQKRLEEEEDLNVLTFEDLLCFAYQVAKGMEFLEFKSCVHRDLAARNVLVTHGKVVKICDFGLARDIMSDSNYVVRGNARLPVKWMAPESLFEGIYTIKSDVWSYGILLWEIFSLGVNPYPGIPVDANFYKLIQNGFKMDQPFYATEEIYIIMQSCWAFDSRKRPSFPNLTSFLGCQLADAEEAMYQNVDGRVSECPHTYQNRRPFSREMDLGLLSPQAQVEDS
How it was run: as §1

[3] = AGLT substrate, 1 μM ATP, read-out: IC50 values (μM) FLT3 ITD

Row | Compound | IC50 [1, 3] [µM] | IC50 [2] [µM] | IC50 ([1]; comparative example, read-out: Influence of compounds on protein kinase inhibition, IC50 values (μM) FLT3 ITD) [µM]
1 | NC1CCC(Nc2nc(Nc3ccc(N4CCOCC4)cc3)c3ncn(C4CCCC4)c3n2)CC1 (stereo not drawn) [Compound 1] | 0.002 | 0.023 | 
2 | NC1CCC(Nc2nc(Nc3ccc(CN4CCNCC4)cc3)c3ncn(C4CCCC4)c3n2)CC1 (stereo not drawn) [Compound 2] | 0.004 | 0.015 | 
3 | CN1CCN(C(=O)c2ccc(Nc3nc(NC4CCC(N)CC4)nc4c3ncn4C3CCCC3)cc2)CC1 (stereo not drawn) [Compound 3] | 0.007 | 0.021 | 
4 | CN1CC2(C1)CN(c1ccc(Nc3nc(NC4CCC(O)CC4)nc4c3ncn4C3CCCC3)cc1)C2 (stereo not drawn) [Compound 7] | 0.005 | 0.026 | 
5 | NCCNc1nc(Nc2ccc(CN3CCNCC3)cc2)c2ncn(C3CCCC3)c2n1 [Compound 14] | 0.004 | 0.014 | 
6 | CN1CCN(C(=O)c2ccc(Nc3nc(NCCCCN)nc4c3ncn4C3CCCC3)cc2)CC1 [Compound 27] | 0.002 | 0.019 | 
7 | NCCCCNc1nc(Nc2ccc(N3CC4(COC4)C3)nc2)c2ncn(C3CCCC3)c2n1 [Compound 28] | 0.003 | 0.01 | 
8 | CN(C)CCNc1nc(Nc2ccc(CN3CCOCC3)nc2)c2ncn(C3CCCC3)c2n1 [Compound 172] | 0.003 | 0.011 | 
9 | CN(C)CCCNc1nc(Nc2ccc(C(=O)N3CCOCC3)nc2)c2ncn(C3CCCC3)c2n1 [Compound 179] | 0.012 | 0.09 | 
10 | NC1CCC(Nc2nc(Nc3ccc(N4CCCC4)cc3)c3ncn(C4CCCC4)c3n2)CC1 (stereo not drawn) [Compound 263] | 0.003 | 0.021 | 
11 | NC1CCC(Nc2nc(Nc3ccc(CN4CCOCC4)cc3)c3ncn(C4CCCC4)c3n2)CC1 (stereo not drawn) [Compound 264] | 0.001 | 0.013 | 0.001
12 | NCCCCNc1nc(Nc2ccc(N3CCOCC3)cc2)c2ncn(C3CCCC3)c2n1 [Compound 265] | 0.004 | 0.023 | 
13 | CCN1CCN(c2ccc(Nc3nc(NCCCCN)nc4c3ncn4C3CCCC3)cc2)CC1 [Compound 266] | 0.002 | 0.013 | 
14 | NCCCCNc1nc(Nc2ccc(CN3CCOCC3)cc2)c2ncn(C3CCCC3)c2n1 [Compound 270] | 0.002 | 0.006 | 
15 | NC1CCC(Nc2nc(Nc3ccc(N4CC5(COC5)C4)cc3)c3ncn(C4CCCC4)c3n2)CC1 (stereo not drawn) [Compound 272] |  | 0.013 | 

From patent publication US11028087B2, “2,6-disubstituted-9-cyclopentyl-9H-purines, use thereof as medicaments, and pharmaceutical compositions” (UNIVERZITA PALACKEHO V OLOMOUCI, priority 2017, dated 2021)
